From patent publication US20050236004A1, “Healthcare model of wellness” (priority 2004, published 2005)

Experiments:
[1] = cited from earlier work
[2] = first principles model of blood serum level of a drug over time
From the text: The relevant internal variables for the modal of FIG. 18 are: • Ingested amount=I • Blood amount=B
The relevant parameters for the model are: • Digestion rate=κ • Absorption rates=α,β • Conversion rate=γ • Excretion rate=ω
The model equations are then: dI/dt=−αI−κ dB/dt−−ωB−γ+αl+κ−βD dD/dt=κ−βD In most cases, these parameters are not available directly, but most infer them from values such as the excretion half-life T1/2 and the time of maximum blood levels, Tmax. For most medications, the digestion and conversion rates are small or zero, and, as such, it is only necessary to estimate the absorption and excretion rates α and ω. […] The system of equations is then given by: dI/dt=αl dB/dt=−ωB+αl which can be solved exactly for the case of a single ingested amount I0 by converting to matrix form: dV/dt=MV where V the column vector [I,B] and M is the coefficient matrix [−α,0][α,−ω]. This matrix equation has the solution: V=exp(Mt)V0 Where exp(Mt) is the exponentiation of M as a matrix taylor series, and V0 is the initial vector. Inserting M=PDP^−1 where D is a diagonal matrix in the taylor series gives: exp(Mt)=Pexp(Dt)P^−1 The eigenvalues are easily given by setting det(D−λI)=0 giving (−α−λ)(−ω−λ)=0, and so λ=−α,−ω D=[−α,0][0,−ω] Solving for the eigenvectors of comprising P gives the following relationship: P=[ω−α)/α,0][1,1] […]

[3] = in vivo

absorption coefficient α ([2]; computed from Tmax by iterative formula): 1.293 h⁻¹
excretion coefficient ω ([2]; ln(2)/half-life): 0.08547 h⁻¹
Cmax/AUC [3]: 0.1089
Compound: Cc1onc(-c2ccccc2)c1-c1ccc(S(N)(=O)=O)cc1 [BEXTRA, Valdecoxib]
Cmin ([1]; at 14 day equilibrium): 21.9 ng/mL
Area_Under_Curve(24 hr) ([1]; given value, 24 hr): 1479.0 ng·h/mL
Cmax ([1]; given value): 161.1 ng/mL
Elimination Half-Life ([1]; given value): 8.11 h
Tmax ([1]; given value): 2.25 h
